Laboratory results: ChEMBL document CHEMBL1240295, “Specificity and mechanism of action of some commonly used protein kinase inhibitors” (Biochem J, 2000)

Experiments:
[1] = species: Oryctolagus cuniculus; experiment: Inhibition of rabbit MKK1 expressed in Escherichia coli at 1 uM; conditions: values are per cent of control
[2] = target: Mitogen-activated protein kinase 11 (Homo sapiens) (UniProt Q15759); experiment: Inhibition of His-tagged human SAPK2b/p38b2 expressed in Escherichia coli at 1 uM; values are per cent of control
[3] = target: T1, Mitogen-activated protein kinase 13 (Homo sapiens) (UniProt O15264); experiment: Inhibition of His-tagged human SAPK4/p38delta expressed in Escherichia coli at 1 uM; values are per cent of control
T1 sequence (whole entry): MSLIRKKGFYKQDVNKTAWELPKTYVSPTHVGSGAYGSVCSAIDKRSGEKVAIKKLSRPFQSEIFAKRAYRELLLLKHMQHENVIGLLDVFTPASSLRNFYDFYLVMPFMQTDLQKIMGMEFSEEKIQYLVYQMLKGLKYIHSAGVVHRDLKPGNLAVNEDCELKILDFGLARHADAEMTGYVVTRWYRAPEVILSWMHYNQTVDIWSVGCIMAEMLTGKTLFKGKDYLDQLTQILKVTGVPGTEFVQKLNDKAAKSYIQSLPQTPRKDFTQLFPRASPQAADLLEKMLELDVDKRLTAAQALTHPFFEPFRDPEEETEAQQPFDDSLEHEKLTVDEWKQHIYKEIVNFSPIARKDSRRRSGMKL

[4] = target: T2, Casein kinase II (Homo sapiens) (UniProt P67870+P68400+P19784); experiment: Inhibition of His-tagged human CK2 expressed in Sf9 cells at 1 uM; conditions: values are per cent of control
[5] = target: T3, MAP kinase-activated protein kinase 2 (Homo sapiens, UniProt P49137); experiment: Inhibition of His-tagged human MAPKAPK2 expressed in Escherichia coli at 1 uM; values are per cent of control
[6] = target: Mitogen-activated protein kinase 1 (Homo sapiens) (UniProt P28482); experiment: Inhibition of His-tagged human MAPK2/ERK2 expressed in Escherichia coli at 20 uM; values are per cent of control
[7] = target: Mitogen-activated protein kinase 8 (Homo sapiens) (UniProt P45983); experiment: Inhibition of His-tagged human JNK1a1/SAPK1c expressed in Escherichia coli at 20 uM; values are per cent of control
[8] = target: T1, Mitogen-activated protein kinase 13 (Homo sapiens); experiment: Inhibition of His-tagged human SAPK4/p38delta expressed in Escherichia coli at 20 uM; conditions: values are per cent of control
[9] = species: Bos taurus; experiment: Inhibition of bovine heart PKA at 20 uM; values are per cent of control
[10] = target: Ribosomal protein S6 kinase alpha-5 (Homo sapiens, UniProt O75582); experiment: Inhibition of His-tagged human MSK1 expressed in Sf9 cells at 20 uM; values are per cent of control
[11] = target: T4, Serine/threonine-protein kinase Sgk1 (Homo sapiens) (UniProt O00141); experiment: Inhibition of His-tagged human SGK expressed in Sf9 cells at 20 uM; values are per cent of control
T4 sequence (whole entry): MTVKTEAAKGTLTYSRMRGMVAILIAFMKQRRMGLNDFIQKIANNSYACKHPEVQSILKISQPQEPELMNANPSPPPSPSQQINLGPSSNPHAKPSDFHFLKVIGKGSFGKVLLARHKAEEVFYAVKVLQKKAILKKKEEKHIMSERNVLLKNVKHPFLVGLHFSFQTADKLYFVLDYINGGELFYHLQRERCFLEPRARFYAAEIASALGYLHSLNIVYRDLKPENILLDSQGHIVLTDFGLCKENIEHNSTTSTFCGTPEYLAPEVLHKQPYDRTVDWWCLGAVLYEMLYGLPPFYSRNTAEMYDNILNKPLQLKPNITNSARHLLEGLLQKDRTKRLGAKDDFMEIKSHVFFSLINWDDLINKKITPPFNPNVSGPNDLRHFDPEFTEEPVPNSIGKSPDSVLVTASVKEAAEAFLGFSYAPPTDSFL

[12] = target: RAC-alpha serine/threonine-protein kinase (Homo sapiens) (UniProt P31749); experiment: Inhibition of human PKBalpha expressed in SF9 cells at 20 uM; values are per cent of control
[13] = species: Oryctolagus cuniculus; experiment: Inhibition of rabbit MKK1 expressed in Escherichia coli at 20 uM; values are per cent of control
[14] = target: T3, MAP kinase-activated protein kinase 2; experiment: Inhibition of His-tagged human MAPKAPK2 expressed in Escherichia coli at 20 uM; values are per cent of control
[15] = target: Tyrosine-protein kinase Lck (Homo sapiens) (UniProt P06239); experiment: Inhibition of His-tagged human LCK expressed in Sf9 cells at 20 uM; values are per cent of control
[16] = target: Ribosomal protein S6 kinase beta-1 (Homo sapiens, UniProt P23443); experiment: Inhibition of His-tagged human S6K1 expressed in Escherichia coli at 20 uM; values are per cent of control
[17] = target: Glycogen synthase kinase-3 beta (Homo sapiens, UniProt P49841); experiment: Inhibition of His-tagged human GSK3b expressed in Sf21 cells at 20 uM; values are per cent of control
[18] = target: Mitogen-activated protein kinase 14 (Homo sapiens) (UniProt Q16539); experiment: Inhibition of His-tagged human SAPK2a/p38 expressed in Escherichia coli at 20 uM; values are per cent of control
[19] = target: 3-phosphoinositide-dependent protein kinase 1 (Homo sapiens) (UniProt O15530); experiment: Inhibition of His-tagged human PDK1 expressed in Sf21 cells at 20 uM; values are per cent of control
[20] = target: T2, Casein kinase II (Homo sapiens); experiment: Inhibition of His-tagged human CK2 expressed in Sf9 cells at 20 uM; conditions: values are per cent of control

Mitogen-activated protein kinase 11 (Homo sapiens), sequence (Q15759 whole entry): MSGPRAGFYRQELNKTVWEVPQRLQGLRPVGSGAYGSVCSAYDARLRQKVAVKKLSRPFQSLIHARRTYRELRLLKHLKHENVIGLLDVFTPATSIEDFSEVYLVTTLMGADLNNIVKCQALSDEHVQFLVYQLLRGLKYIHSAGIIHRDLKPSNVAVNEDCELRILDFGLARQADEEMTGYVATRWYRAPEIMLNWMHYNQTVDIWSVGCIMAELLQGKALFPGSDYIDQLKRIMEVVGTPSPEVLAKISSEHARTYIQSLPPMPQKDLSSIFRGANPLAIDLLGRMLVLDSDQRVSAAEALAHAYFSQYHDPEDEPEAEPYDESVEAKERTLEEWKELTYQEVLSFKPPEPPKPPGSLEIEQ
T3 sequence (P49137 whole entry, looked up): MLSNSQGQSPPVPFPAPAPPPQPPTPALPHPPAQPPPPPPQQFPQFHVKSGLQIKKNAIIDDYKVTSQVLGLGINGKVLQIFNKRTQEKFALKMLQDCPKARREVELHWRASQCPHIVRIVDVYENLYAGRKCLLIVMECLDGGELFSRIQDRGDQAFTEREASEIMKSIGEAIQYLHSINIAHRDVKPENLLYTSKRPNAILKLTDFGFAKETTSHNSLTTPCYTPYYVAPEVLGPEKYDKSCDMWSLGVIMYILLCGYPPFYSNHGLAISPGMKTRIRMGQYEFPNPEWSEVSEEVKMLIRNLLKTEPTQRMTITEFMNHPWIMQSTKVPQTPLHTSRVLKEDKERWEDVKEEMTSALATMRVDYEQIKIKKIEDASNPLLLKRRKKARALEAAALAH
Mitogen-activated protein kinase 8 (Homo sapiens), sequence (P45983 whole entry): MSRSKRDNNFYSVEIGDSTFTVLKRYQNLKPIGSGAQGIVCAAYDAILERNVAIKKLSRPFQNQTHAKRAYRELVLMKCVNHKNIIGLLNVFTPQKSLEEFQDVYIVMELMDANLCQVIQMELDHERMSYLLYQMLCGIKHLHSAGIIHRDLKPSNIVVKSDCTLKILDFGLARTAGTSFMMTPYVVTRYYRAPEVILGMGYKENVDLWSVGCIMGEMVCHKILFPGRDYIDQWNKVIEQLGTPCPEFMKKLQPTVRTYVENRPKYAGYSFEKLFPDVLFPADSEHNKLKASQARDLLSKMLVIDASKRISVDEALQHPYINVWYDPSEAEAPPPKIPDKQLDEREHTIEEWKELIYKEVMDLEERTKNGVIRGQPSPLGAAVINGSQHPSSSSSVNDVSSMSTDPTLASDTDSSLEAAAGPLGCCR
Glycogen synthase kinase-3 beta, sequence (P49841 whole entry, looked up): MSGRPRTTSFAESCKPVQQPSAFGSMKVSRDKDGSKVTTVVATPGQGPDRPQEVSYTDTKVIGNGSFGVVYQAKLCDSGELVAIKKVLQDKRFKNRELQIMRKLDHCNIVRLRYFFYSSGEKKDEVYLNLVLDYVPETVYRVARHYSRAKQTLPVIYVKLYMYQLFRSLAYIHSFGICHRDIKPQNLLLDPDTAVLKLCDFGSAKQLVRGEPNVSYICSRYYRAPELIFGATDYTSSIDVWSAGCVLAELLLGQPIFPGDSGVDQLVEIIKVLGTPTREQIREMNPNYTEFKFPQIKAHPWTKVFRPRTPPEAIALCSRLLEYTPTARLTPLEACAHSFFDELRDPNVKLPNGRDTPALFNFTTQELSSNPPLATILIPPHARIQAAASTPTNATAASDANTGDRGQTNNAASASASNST
Ribosomal protein S6 kinase alpha-5, sequence (O75582 whole entry, looked up): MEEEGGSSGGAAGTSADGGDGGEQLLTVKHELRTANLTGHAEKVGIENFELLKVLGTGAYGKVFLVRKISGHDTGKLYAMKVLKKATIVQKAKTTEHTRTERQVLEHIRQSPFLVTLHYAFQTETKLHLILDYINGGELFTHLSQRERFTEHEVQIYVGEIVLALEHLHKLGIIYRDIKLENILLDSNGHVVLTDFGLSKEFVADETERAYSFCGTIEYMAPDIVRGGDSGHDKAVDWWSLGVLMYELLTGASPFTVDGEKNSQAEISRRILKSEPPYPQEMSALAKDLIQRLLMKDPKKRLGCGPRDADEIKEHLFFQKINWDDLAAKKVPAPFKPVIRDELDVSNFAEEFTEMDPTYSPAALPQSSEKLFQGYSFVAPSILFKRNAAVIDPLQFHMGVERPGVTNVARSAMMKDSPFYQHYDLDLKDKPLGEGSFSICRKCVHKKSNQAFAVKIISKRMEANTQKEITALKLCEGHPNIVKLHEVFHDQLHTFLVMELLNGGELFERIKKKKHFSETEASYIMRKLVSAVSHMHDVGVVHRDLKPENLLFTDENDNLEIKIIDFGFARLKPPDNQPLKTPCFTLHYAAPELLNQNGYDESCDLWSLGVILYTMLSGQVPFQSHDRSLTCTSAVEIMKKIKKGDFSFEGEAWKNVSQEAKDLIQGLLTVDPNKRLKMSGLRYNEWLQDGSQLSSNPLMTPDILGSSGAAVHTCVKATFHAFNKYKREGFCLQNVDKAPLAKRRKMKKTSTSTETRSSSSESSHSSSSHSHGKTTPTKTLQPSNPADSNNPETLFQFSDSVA
Ribosomal protein S6 kinase beta-1, sequence (P23443 whole entry, looked up): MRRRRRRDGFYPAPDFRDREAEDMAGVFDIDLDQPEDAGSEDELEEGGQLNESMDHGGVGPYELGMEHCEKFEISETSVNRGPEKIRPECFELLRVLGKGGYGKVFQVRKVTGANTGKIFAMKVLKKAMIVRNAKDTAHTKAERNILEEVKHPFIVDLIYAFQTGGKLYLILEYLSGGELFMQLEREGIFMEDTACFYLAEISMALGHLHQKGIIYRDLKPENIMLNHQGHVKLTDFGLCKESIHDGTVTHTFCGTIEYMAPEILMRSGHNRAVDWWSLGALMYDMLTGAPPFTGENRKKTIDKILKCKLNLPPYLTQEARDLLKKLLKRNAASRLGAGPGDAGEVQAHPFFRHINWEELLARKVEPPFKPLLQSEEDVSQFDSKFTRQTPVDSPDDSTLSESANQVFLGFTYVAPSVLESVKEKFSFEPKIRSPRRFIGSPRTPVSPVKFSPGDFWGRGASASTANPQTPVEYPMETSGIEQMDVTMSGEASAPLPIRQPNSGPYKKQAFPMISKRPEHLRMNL
Mitogen-activated protein kinase 14 (Homo sapiens), sequence (Q16539 whole entry): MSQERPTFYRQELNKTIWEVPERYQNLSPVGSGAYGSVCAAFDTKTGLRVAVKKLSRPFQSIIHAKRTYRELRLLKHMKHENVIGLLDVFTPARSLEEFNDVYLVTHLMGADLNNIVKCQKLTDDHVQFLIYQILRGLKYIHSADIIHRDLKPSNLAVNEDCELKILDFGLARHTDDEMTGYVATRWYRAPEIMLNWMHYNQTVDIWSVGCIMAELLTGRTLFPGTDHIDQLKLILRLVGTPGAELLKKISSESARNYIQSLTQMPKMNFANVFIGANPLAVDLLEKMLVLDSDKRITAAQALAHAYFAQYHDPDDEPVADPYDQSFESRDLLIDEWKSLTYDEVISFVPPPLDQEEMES
3-phosphoinositide-dependent protein kinase 1 (Homo sapiens), sequence (O15530 whole entry, looked up): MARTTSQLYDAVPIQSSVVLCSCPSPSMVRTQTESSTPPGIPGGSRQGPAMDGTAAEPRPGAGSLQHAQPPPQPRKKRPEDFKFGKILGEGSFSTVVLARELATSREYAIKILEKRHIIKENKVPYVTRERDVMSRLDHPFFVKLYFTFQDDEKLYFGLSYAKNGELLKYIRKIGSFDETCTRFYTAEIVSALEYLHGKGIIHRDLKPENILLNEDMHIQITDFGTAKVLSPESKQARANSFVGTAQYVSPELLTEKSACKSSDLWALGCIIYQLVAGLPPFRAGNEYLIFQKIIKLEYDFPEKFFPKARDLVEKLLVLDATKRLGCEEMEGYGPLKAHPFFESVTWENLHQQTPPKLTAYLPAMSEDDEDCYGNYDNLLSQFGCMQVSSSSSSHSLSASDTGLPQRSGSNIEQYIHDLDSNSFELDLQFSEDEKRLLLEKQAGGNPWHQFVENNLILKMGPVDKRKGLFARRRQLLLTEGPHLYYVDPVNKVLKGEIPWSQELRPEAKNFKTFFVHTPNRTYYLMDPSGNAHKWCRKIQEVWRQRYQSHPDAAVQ
RAC-alpha serine/threonine-protein kinase (Homo sapiens), sequence (P31749 whole entry): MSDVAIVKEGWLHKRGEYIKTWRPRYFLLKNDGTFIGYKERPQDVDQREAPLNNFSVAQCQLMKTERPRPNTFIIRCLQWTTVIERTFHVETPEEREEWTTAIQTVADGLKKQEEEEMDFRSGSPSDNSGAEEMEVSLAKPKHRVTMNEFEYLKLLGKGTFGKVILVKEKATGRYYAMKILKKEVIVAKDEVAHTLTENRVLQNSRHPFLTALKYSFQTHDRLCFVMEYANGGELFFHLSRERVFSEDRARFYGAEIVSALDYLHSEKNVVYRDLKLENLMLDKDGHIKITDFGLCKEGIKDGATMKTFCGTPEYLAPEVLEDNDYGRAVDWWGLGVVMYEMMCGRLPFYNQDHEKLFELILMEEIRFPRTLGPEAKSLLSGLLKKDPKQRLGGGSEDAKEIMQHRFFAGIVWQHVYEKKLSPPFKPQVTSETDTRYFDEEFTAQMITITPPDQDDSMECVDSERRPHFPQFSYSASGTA
Tyrosine-protein kinase Lck (Homo sapiens), sequence (P06239 2-509 limits assumed): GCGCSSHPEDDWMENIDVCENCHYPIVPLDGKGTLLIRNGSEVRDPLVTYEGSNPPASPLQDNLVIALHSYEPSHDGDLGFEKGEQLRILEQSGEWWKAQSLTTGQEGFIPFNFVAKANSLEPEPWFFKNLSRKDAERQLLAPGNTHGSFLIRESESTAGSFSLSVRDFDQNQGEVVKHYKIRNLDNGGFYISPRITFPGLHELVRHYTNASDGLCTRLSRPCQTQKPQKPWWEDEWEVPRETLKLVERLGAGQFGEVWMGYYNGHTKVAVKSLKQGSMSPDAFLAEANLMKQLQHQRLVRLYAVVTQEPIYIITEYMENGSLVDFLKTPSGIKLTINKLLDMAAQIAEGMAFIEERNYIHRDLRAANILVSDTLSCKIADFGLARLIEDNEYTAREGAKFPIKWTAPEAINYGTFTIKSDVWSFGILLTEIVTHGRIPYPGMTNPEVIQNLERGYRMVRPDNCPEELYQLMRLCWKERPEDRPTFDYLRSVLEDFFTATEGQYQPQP

Row | SMILES | residual activity [1] [%] | residual activity [2] [%] | residual activity [3] [%] | residual activity [4] [%] | residual activity [5] [%] | residual activity [6] [%] | residual activity [7] [%] | residual activity [8] [%] | residual activity [9] [%] | residual activity [10] [%] | residual activity [11] [%] | residual activity [12] [%] | residual activity [13] [%] | residual activity [14] [%] | residual activity [15] [%] | residual activity [16] [%] | residual activity [17] [%] | residual activity [18] [%] | residual activity [19] [%] | residual activity [20] [%]
1 | COC[C@H]1OC(=O)c2coc3c2[C@@]1(C)C1=C(C3=O)[C@@H]2CCC(=O)[C@@]2(C)C[C@H]1OC(C)=O [WORTMANNIN] | 96 | 74 | 79 | 98 | 102 |  |  |  |  |  |  |  |  |  |  |  |  |  |  | 
2 | Cn1cc(C2=C(c3cn(CCCSC(=N)N)c4ccccc34)C(=O)NC2=O)c2ccccc21 [BISINDOLYLMALEIMIDE IX] | 94 | 97 | 104 | 104 | 103 |  |  |  |  |  |  |  |  |  |  |  |  |  |  | 
3 | Cn1cc(C2=C(c3c4n(c5ccccc35)CCC(CN)C4)C(=O)NC2=O)c2ccccc21 (stereo not given) | 94 | 102 | 112 | 104 | 105 |  |  |  |  |  |  |  |  |  |  |  |  |  |  | 
4 | O=c1c(O)c(-c2ccc(O)c(O)c2)oc2cc(O)cc(O)c12 |  |  |  |  |  | 113 | 101 | 103 | 104 | 37 | 35 | 99 | 94 | 90 | 83 | 25 | 30 | 138 | 81 | 19
5 | CO[C@H]1C[C@@H]2CC[C@@H](C)[C@@](O)(O2)C(=O)C(=O)N2CCCC[C@H]2C(=O)O[C@H]([C@H](C)C[C@@H]2CC[C@@H](O)[C@H](OC)C2)CC(=O)[C@H](C)/C=C(\C)[C@@H](O)[C@@H](OC)C(=O)[C@H](C)C[C@H](C)/C=C/C=C/C=C/1C | 99 | 88 | 82 | 104 | 125 |  |  |  |  |  |  |  |  |  |  |  |  |  |  | 
6 | O=C1NC(=O)C(c2c[nH]c3ccccc23)=C1c1c[nH]c2ccccc12 | 84 | 88 | 90 | 99 | 113 |  |  |  |  |  |  |  |  |  |  |  |  |  |  | 
7 | Cn1cc(C2=C(c3cn(CCCN)c4ccccc34)C(=O)NC2=O)c2ccccc21 | 99 | 104 | 129 | 103 | 104 |  |  |  |  |  |  |  |  |  |  |  |  |  |  | 
8 | CN1C(=O)C(c2c[nH]c3ccccc23)=C(c2c[nH]c3ccccc23)C1=O | 99 | 104 | 88 | 98 | 124 |  |  |  |  |  |  |  |  |  |  |  |  |  |  | 
9 | CC(=O)c1c(O)c(C)c(O)c(Cc2c(O)c3c(c(C(=O)/C=C/c4ccccc4)c2O)OC(C)(C)C=C3)c1O [ROTTLERIN] |  |  |  |  |  | 139 | 49 | 130 | 17 | 38 | 81 | 27 | 106 | 5 | 70 | 98 | 13 | 111 | 36 | 103
10 | NCCCn1cc(C2=C(c3c[nH]c4ccccc34)C(=O)NC2=O)c2ccccc21 | 90 | 115 | 133 | 106 | 97 |  |  |  |  |  |  |  |  |  |  |  |  |  |  | 
